We go through 15 compounds from US6828345B2, “O-substituted 6-methyltramadol derivatives” (Gruenenthal GmbH, priority 2000, dated 2004).

Assay [1] relates to phenylquinone-induced writhing reaction in mice. In words: Phenylquinone-induced writhing test in mice. It is filed as in vivo, Male NMRI mice. The following applies: orally, phenylquinone i.p. 30 minutes after oral administration, writhing counted 5-20 minutes after phenylquinone; for ED50: Mus musculus, read-out: ED50 writhing inhibition. The procedure:
The analgesic effectiveness of the compounds according to the invention was investigated in mice using the phenylquinone-induced writhing test as modified by I. C. Hendershot, J. Forsaith in J. Pharmacol. Exptl. Ther. 125, 237 (1959). Male NMRI mice weighing between 25 and 30 g were used for this purpose. Groups of 10 animals per substance dose received intraperitoneally 30 minutes after oral administration of a compound according to the invention, 0.3 ml per mouse of a 0.02% aqueous phenylquinone solution (phenylbenzoquinone, from Sigma, Deisenhofen; solution prepared by addition of 5% ethanol and storage in a water bath at 45° C.). The animals were then placed individually in observation cages. The number of pain-induced stretching movements (writhing reaction=contortion of the body accompanied by stretching of the rear extremities) was counted using a push-button counter 5-20 minutes after administration of the phenylquinone. The ED50 values (effective dose with 50% inhibition of the writhing reaction) were calculated with 95% level of confidence by means of regression analysis (evaluation program from Martens EDV-Service, Ekental) from the dose-dependent reduction in the writhing reaction compared to mice investigated in parallel to which only phenylquinone had been administered.

Assay [2] deals with tail-flick pain latency in mice. In words: Tail-flick (focussed beam) test on mice. It counts as in vivo, NMR mice. The following applies: for ED50: Mus musculus. From the text:
The analgesic effectiveness of the compounds according to the invention was investigated by the focussed beam (tail-flick) test in mice according to the method developed by D'Amour and Smith (J. Pharmaceutical. Exp. Ther. 72, 74 79 (1941)). NMR mice weighing between 20 and 24 g were used for this purpose. The animals were placed individually in special test cages and the base of the tail was subjected to a focused beam of light from an electric lamp (tail-flick type 55/12/10.fl, Labtec, Dr Hess). The lamp intensity was adjusted so that the time from when the lamp was switched on to the sudden withdrawal of the tail (pain latency) was 3 to 5 seconds in the case of untreated animals. Before administration of a compound according to the invention the animals were pre-tested twice within 5 minutes and the mean value of these measurements was calculated as a pre-test mean value. The pain measurements were carried out 20, 40 and 60 minutes after intravenous administration. The analgesic action was calculated as the increase in the pain latency (% MPE) according to the following formula: […]
Here T0 is the latency time before application of the substance and T1 the latency time after application of the substance, and T2 is the maximum exposure time (12 sec).
In order to determine the dose dependence the respective compound according to the invention was applied in 3 to 5 logarithmically increasing doses that included in each case the threshold dose and the maximal effect dose, and the ED50 values were determined by means of regression analysis. The ED50 calculation was carried out at the effect maximum 20 minutes after intravenous administration of the substance.

The mark [3] stands for this setting: iv, 20 min, i.v., effect maximum 20 minutes after intravenous administration.
The mark [4] stands for this setting: i.v., effect maximum 20 minutes after intravenous administration.

With `COc1cccc(C2(O)C(C)CCCC2CN(C)C)c1` (stereo not drawn) [Example 6, 2-dimethylaminomethyl-1-(3-methoxyphenyl)-6-methylcyclohexanol], the ED50 writhing inhibition in assay [1] came out at 6.58 mg/kg. The ED50 in assay [2] (setting [3]) stood at 7.73 mg/kg.

With `C=CCOc1cccc(C2(O)C(C)CCCC2CN(C)C)c1` (racemic) [Example 4, 1-(3-allyloxyphenyl)-2-dimethylaminomethyl-6-methylcyclohexanol], the ED50 amounted to 9.38 mg/kg in assay [1] and 20.2 mg/kg in assay [2] (setting [3]).

In assay [1], `CC1CCCC(CN(C)C)C1(O)c1cccc(O)c1` (stereo not drawn) [Example 9, 3-(2-dimethylaminomethyl-1-hydroxy-6-methylcyclohexyl)-phenol] gave an ED50 writhing inhibition of 19.8 mg/kg. Further, the ED50 tail-flick in assay [2] (setting [4]) stood at 14.7 mg/kg.

As to `CCOc1cccc(C2(O)C(C)CCCC2CN(C)C)c1` (stereo not drawn) [Example 11, 2-dimethylaminomethyl-1-(3-ethoxyphenyl)-6-methylcyclohexanol], in assay [1], the ED50 writhing inhibition is recorded as 21.6 mg/kg.

In turn, `CC1CCCC(CN(C)C)C1(O)c1cccc(O)c1` (stereo not drawn) [Example 10, 3-(2-dimethylaminomethyl-1-hydroxy-6-methylcyclohexyl)-phenol] gave an ED50 writhing inhibition in assay [1] of 5.3 mg/kg. In assay [2] (setting [4]), this compound had an ED50 tail-flick of 0.91 mg/kg.

In assay [2] (setting [3]), `C#COc1cccc(C2(O)C(C)CCCC2CN(C)C)c1` (stereo not drawn) [Example 19, 2-dimethylaminomethyl-1-(3-ethynyloxyphenyl)-6-methylcyclohexanol] registered an ED50 of 14.7 mg/kg.

In turn, `CC1CCCC(CN(C)C)C1(O)c1cccc(OC2CCC2)c1` (stereo not drawn) [Example 21, 1-(3-cyclobutoxyphenyl)-2-dimethylaminomethyl-6-methylcyclohexanol] displayed an ED50 in assay [2] (setting [3]) of 30 mg/kg.

In assay [2] (setting [3]), `COc1cccc(C2(O)C(C)CCCC2CN(C)C)c1` (racemic) [Example 1, 2-dimethylaminomethyl-1-(3-methoxyphenyl)-6-methylcyclohexanol] displayed an ED50 of 5.6 mg/kg.

`CC1CCCC(CN(C)C)C1(O)c1cccc(OCC2CCC2)c1` (stereo not drawn) [Example 16, 1-(3-cyclobutylmethoxyphenyl)-2-dimethylaminomethyl-6-methylcyclohexanol]: the results for the ED50 in assay [1] and in assay [2] (setting [3]) were 32.8 mg/kg and 21.5 mg/kg, respectively.

In turn, `CCOc1cccc(C2(O)C(C)CCCC2CN(C)C)c1` (racemic) [Example 2, 2-dimethylaminomethyl-1-(3-ethoxyphenyl)-6-methylcyclohexanol] came in with an ED50 in assay [2] (setting [3]) of 11.9 mg/kg.

On to `COc1cccc(C2(O)C(C)CCCC2CN(C)C)c1` (stereo not drawn) [Example 5, 2-dimethylaminomethyl-1-(3-methoxyphenyl)-6-methylcyclohexanol], for which the ED50 was 11 mg/kg in assay [1] and 42.9 mg/kg in assay [2] (po, orally (cell note)).

On to `CC1CCCC(CN(C)C)C1(O)c1cccc(O)c1` (racemic) [Example 8, 3-(2-dimethylaminomethyl-1-hydroxy-6-methylcyclohexyl)-phenol], for which the ED50 writhing inhibition in assay [1] is 14.0 mg/kg.

Take `CCOc1cccc(C2(O)C(C)CCCC2CN(C)C)c1` (stereo not drawn) [Example 12, 2-dimethylaminomethyl-1-(3-ethoxyphenyl)-6-methylcyclohexanol]: in assay [1], the ED50 writhing inhibition is 4.39 mg/kg. In assay [2] (setting [3]), the ED50 is 13.4 mg/kg.

In assay [1], `CC1CCCC(CN(C)C)C1(O)c1cccc(O)c1` (racemic) [Example 3, 3-(2-dimethylaminomethyl-1-hydroxy-6-methyl-cyclohexyl)phenol] yielded an ED50 writhing inhibition of 2.09 mg/kg. This compound also registered an ED50 in assay [2] (setting [3]) of 2.15 mg/kg.

In the case of `CC1CCCC(CN(C)C)C1(O)c1cccc(OC2CCCC2)c1` (stereo not drawn) [Example 14, 1-(3-cyclopentyloxyphenyl)-2-dimethylaminomethyl-6-methylcyclohexanol], the figures for the ED50 in assay [1] and in assay [2] (setting [3]) were 26.2 mg/kg and 20 mg/kg, respectively.
